Measured values taken from publication PMC6912361, “Systemic Toxicity Reported for CDK8/19 Inhibitors CCT251921 and MSC2530818 Is Not Due to Target Inhibition” (Cells, 2019).
Read-outs that look alike come from different tables or passages of the source.

What was measured:
CDK8 = CDK8 (Homo sapiens, UniProt P49336); assay: Cell-based QPCR assay of CDK8/19-dependent gene expression, HEK293 CDK19 single-knockout (19KO) cells; design: CDK19 single-knockout (19KO); endogenous in cells; host or cells: HEK293 CDK19 knockout (19KO); conditions: HEK293 19KO, 1 h pre-treatment, then 10 ng/mL TNFα 2 h
Procedure: (§3) CDK8/CDK19 single knockout and double knockout derivatives of human embryonic kidney (HEK) 293 cells (ATCC CRL-1573) were generated as previously described [18]. All cells were cultured in DMEM (high-glucose) media supplemented with 10% fetal bovine serum (FBS) and Penicillin-Streptomycin-Glutamine (1×) at 37 °C with 5% CO2 and routinely confirmed to be free of mycoplasma.
(§4) Total RNA was extracted using RNAeasy Mini Kit (Qiagen, Germantown, MD, USA) and 1 µg of total RNA was used to generate cDNA using iScript cDNA synthesis kit (Bio-Rad Laboratories, Hercules, CA, USA). Gene expression was quantified using iTaq Universal SYBR green super mix using CFX384 Real-Time System (Bio-Rad).
(§5) The IC50 values for different inhibitors in inhibiting CDK8/19-dependent gene expression were calculated using a three-parameter least square (ordinary) fitting method with GraphPad Prism 7.0 (GraphPad Software, San Diego, CA, USA). The Kruskal–Wallis non-parametric ANOVA was used to compare gene expression levels under no-inhibitor conditions between wild-type cells and knockout derivatives (8KO, 19KO and dKO) with GraphPad Prism 7.0.
(§6) Cells were pre-treated with different concentrations of CDK8/19 inhibitors for 1 h and then 10 ng/mL TNFα, an inducer of transcription factor NFκB, which is potentiated by CDK8/19 [5], was added for 2 h before RNA extraction. QPCR was carried out to quantify CDK8/19-regulated expression of NFκB-inducible genes CXCL1 and CXCL8 and the basal expression of MYC.

CDK19 [1] = molecular target: T1, CDK19 (Homo sapiens, UniProt Q9BWU1); assay: Cell-based QPCR assay of CDK8/19-dependent gene expression, HEK293 CDK8 single-knockout (8KO) cells; design: CDK8 single-knockout (8KO); endogenous in cells; host or cells: HEK293 CDK8 knockout (8KO); conditions: HEK293 8KO, 1 h pre-treatment, then 10 ng/mL TNFα 2 h
Target sequence in this assay (Q9BWU1 whole entry): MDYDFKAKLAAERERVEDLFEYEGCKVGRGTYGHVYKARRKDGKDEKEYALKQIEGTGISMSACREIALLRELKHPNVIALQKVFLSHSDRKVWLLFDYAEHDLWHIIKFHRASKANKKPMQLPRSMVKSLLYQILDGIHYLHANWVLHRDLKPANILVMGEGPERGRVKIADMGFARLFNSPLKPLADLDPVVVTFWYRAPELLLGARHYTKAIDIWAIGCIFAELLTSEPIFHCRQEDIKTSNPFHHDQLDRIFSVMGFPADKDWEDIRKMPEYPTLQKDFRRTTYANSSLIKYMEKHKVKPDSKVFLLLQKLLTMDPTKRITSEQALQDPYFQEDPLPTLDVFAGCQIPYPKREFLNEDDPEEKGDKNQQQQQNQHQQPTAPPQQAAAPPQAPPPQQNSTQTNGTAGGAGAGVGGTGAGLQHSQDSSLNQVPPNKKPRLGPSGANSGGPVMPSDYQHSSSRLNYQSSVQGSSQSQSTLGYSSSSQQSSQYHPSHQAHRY
Target sequence in this assay (P24863 whole entry partner): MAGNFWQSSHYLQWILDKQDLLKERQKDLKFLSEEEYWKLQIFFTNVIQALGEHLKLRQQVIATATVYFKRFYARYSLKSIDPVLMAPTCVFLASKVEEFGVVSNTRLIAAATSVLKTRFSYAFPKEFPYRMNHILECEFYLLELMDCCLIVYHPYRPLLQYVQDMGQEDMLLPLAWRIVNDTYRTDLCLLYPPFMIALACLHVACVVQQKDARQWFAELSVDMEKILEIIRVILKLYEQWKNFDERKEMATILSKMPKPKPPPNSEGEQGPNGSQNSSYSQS
Procedure: as §3, §4, §5, §6

CDK8/19 [2] = assay: Cell-based QPCR assay of CDK8/19-dependent gene expression, HEK293 parental (WT) cells; design: species or system human
Procedure: All cells were cultured in DMEM (high-glucose) media supplemented with 10% fetal bovine serum (FBS) and Penicillin-Streptomycin-Glutamine (1×) at 37 °C with 5% CO2 and routinely confirmed to be free of mycoplasma.
as §4
The IC50 values for different inhibitors in inhibiting CDK8/19-dependent gene expression were calculated using a three-parameter least square (ordinary) fitting method with GraphPad Prism 7.0 (GraphPad Software, San Diego, CA, USA).
as §6

PIKFYVE [3] = molecular target: T2, PIKFYVE (Homo sapiens, UniProt Q9Y2I7); assay: KdELECT Kd determination, PIKFYVE; design: purchased DiscoverX; conditions: 11-point 3-fold serial dilution, duplicate; read-out: Kd for the inhibition of nucleotide binding, PIKFYVE
Procedure: (§1) The screening platform employs an active site-directed competition binding assay to quantitatively measure interactions between test compounds and targeting kinases. […] To determine dissociation constants (Kds) of compounds on different targets, an 11-point 3-fold serial dilution of each test compound was tested in independent duplicate assays.
(§2) This assay has been previously used with many CDK8/19 inhibitors, including cortistatin A and its equipotent analog dCA [20, 21]; 15w.

[4] = design: method as in PMID 27935476; conditions: colon cancer and leukemia mouse xenograft models; cited from earlier work
JNK1 (MAPK8) = molecular target: T3, JNK1 (MAPK8) (Homo sapiens, UniProt P45983); assay: KdELECT Kd determination, JNK1; conditions: 11-point 3-fold serial dilution, duplicate; read-out: Kd for the inhibition of nucleotide binding, JNK1 (MAPK8)
T3 construct: purchased DiscoverX
Procedure: as §1, §2

CDK19 [5] = molecular target: T1, CDK19; assay: KdELECT Kd determination, CDK19; assay type: binding; design: purchased DiscoverX
Procedure: To determine dissociation constants (Kds) of compounds on different targets, an 11-point 3-fold serial dilution of each test compound was tested in independent duplicate assays.
Target sequence in this assay (Q9BWU1 whole entry): as the sequence (Q9BWU1 whole entry) above

[6] = tested on: non-dechorionated embryos of zebrafish TU strain; assay: Zebrafish toxicity assay, non-dechorionated embryos (TU strain); assay type: in vivo; conditions: 2 μM; TU strain
Procedure: The toxicity studies in non-dechorionated embryos of zebrafish TU strain were approved by the Institutional Animal Care and Use Committee of the University of South Carolina. The studies were conducted in sterile 24-well plates with one 24 hpf embryo in each well in a 1 mL volume of egg water. For each plate, 6 wells were treated with vehicle control and the other 18 wells (i.e., biological replicates) were treated with different CDK8/19 inhibitors at different concentrations. […] All the data from the plates with at least five healthy vehicle-treated embryos on day 5 were compiled together for final data analysis.

[7] = design: method as in PMID 26796641; conditions: mice, 30 mg/kg/d; cited from earlier work
dogs = conditions: cited from earlier work
STK16 = molecular target: T4, STK16 (Homo sapiens, UniProt O75716); assay: KdELECT Kd determination, STK16; conditions: 11-point 3-fold serial dilution, duplicate; read-out: Kd for the inhibition of nucleotide binding, STK16
T4 construct: purchased DiscoverX
Procedure: as §1, §2

rats = conditions: cited from earlier work
PIKFYVE [8] = molecular target: T2, PIKFYVE; assay: Phase-contrast microscopy for intracellular large vesicular structures (PIKFYVE inhibition); assay type: cell-based; design: endogenous in cells; host or cells: HEK293-WT and HEK293-dKO; conditions: 3 h; both WT and dKO 293 cells
Procedure: To evaluate PIKFYVE kinase inhibition, HEK293-WT and HEK293-dKO cells were treated with CDK8/19 inhibitors at different drug concentrations for 3 h. Phase-contrast microscopy was then used to detect the formation of intracellular large vesicular structures, associated with PIKFYVE inhibition.

[9] = tested on: STAT1 S727 phosphorylation; assay: Western blot of STAT1 S727 phosphorylation in 293-dKO cells; assay type: cell-based, human; conditions: for CDK8/19-independent STAT1 S727 phosphorylation in dKO 293 cells, effect of cytotoxic drugs: 3 h, 50 μM etoposide, 50 nM Taxol; for Basal STAT1 S727 phosphorylation in dKO cells, effect of cytokines: 20 ng/mL EGF, 40 ng/mL TNFα, 1 h after 24 h serum starvation
Procedure: Cells were cultured in 60-mm dishes and treated under different conditions before being lysed in RIPA lysis buffer with protease/phosphatase inhibitor cocktail. The protein concentration of extracts was determined using the DC protein assay (Bio-Rad Laboratories). Protein samples (50 μg) were resolved on 4–12% Express-Plus PAGE gels in Tris-MOPS (SDS) running buffer (GenScript, Piscataway, NJ, USA), transferred to PVDF membranes and incubated at 4 °C overnight with primary antibodies STAT1 (sc-592, Santa Cruz Biotechnology, Dallas, TX, USA) and pSTAT1-Ser727 (#8826, Cell Signaling Technology, Danvers, MA, USA) followed by anti-rabbit (NA934, GE Healthcare, Chicago, IL, USA) secondary antibodies. Bands were visualized with Western Lighting Plus ECL detection reagent (Perkin Elmer, Waltham, MA, USA) using ChemiDoc Touch™ (Bio-Rad). Images were analyzed using ImageLab (Bio-Rad) and ImageJ (version 1.52p) software for protein signal quantification.

CDK8/19 [10] = assay: Wash-off study: stability of inhibition of CDK8/19-dependent gene expression in 293 cells; assay type: cell-based, human; conditions: 30 nM, 3 h, then drug-free media
Description: We then asked if such toxicity could be associated with the stability of CDK8/19 inhibition. […] Then the drug-containing media were removed, cells were washed twice with PBS and cultured in fresh drug-free media for different periods of time before being lysed for RNA extraction and QPCR analysis of mRNA expression of MYC, JUN and ADAMTS1.

[11] = IC50, CXCL1 mRNA expression, 8KO
[12] = IC50, CXCL8 mRNA expression, 8KO
[13] = read-out: IC50, CXCL1 mRNA expression, WT; HEK293 WT; 1 h pre-treatment, then 10 ng/mL TNFα 2 h; QPCR
[14] = read-out: IC50, CXCL8 mRNA expression, WT; HEK293 WT; 1 h pre-treatment, then 10 ng/mL TNFα 2 h; QPCR
[15] = read-out: IC50, MYC mRNA expression, WT; HEK293 WT; 1 h pre-treatment, then 10 ng/mL TNFα 2 h; QPCR

Chain of CDK8 (P49336 whole entry): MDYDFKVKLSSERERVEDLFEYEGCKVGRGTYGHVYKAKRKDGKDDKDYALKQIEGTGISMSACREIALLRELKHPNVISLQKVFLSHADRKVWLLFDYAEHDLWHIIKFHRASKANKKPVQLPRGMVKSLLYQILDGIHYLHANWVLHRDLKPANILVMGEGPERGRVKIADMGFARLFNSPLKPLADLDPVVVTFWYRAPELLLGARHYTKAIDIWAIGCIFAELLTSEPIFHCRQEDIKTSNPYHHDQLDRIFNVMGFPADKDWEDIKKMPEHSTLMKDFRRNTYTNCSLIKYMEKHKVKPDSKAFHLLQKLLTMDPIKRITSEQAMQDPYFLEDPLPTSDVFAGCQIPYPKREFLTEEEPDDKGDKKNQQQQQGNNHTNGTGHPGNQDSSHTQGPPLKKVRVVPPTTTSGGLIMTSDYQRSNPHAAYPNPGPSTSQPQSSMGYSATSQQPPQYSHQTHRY
Chain of CDK8 (P24863 whole entry partner): as the sequence (P24863 whole entry partner) above
T2 sequence (Q9Y2I7 whole entry): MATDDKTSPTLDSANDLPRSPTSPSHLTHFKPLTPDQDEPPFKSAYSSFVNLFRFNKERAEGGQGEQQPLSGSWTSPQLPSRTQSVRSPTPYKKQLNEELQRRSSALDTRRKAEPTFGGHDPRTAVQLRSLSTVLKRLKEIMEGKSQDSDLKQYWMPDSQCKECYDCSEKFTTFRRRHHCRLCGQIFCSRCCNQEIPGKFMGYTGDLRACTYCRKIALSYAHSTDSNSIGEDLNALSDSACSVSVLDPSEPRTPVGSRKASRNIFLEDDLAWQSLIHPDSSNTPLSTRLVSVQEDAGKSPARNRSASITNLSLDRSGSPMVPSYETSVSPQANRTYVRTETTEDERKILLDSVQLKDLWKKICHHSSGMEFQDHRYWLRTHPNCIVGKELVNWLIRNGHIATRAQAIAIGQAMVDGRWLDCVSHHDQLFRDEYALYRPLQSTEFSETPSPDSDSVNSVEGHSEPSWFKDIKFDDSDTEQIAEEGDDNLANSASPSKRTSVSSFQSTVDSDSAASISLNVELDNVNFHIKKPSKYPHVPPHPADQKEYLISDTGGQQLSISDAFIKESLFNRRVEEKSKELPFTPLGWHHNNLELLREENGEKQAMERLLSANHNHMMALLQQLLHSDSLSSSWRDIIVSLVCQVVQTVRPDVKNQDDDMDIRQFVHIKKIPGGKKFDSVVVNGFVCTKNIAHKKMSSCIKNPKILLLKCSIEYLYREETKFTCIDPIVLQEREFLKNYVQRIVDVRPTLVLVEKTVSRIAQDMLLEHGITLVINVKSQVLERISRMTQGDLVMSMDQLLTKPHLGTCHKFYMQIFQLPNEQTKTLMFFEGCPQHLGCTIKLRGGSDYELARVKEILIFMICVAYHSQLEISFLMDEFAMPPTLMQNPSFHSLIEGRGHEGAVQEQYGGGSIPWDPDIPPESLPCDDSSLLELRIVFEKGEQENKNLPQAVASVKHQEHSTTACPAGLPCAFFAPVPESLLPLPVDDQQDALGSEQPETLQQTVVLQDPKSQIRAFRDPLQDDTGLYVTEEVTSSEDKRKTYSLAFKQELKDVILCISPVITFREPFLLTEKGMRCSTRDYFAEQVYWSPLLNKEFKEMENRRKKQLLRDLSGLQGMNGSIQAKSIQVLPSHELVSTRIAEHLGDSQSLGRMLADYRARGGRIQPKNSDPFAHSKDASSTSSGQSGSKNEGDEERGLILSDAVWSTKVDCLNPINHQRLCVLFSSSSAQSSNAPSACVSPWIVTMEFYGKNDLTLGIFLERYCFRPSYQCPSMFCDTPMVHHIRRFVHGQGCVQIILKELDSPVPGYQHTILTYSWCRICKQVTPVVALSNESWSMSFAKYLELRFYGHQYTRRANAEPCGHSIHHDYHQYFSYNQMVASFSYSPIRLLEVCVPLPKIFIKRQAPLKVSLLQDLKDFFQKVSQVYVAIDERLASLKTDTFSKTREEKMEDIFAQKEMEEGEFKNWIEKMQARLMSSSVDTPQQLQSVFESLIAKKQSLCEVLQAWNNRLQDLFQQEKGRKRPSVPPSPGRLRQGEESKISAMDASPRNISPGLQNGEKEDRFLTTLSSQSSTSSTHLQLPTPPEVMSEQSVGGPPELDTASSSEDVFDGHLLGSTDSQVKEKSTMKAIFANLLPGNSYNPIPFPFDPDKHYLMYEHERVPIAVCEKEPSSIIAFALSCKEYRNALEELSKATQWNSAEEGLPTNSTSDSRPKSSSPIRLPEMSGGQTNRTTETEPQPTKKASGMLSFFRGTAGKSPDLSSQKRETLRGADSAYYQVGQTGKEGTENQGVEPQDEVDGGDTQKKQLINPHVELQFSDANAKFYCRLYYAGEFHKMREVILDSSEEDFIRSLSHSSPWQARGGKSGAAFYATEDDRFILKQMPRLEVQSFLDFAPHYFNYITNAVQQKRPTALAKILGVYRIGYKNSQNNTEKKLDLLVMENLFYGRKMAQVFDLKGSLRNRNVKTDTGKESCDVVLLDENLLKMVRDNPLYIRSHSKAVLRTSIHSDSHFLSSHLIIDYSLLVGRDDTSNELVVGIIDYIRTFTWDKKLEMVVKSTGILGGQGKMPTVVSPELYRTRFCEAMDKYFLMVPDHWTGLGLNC
T3 sequence (P45983 whole entry): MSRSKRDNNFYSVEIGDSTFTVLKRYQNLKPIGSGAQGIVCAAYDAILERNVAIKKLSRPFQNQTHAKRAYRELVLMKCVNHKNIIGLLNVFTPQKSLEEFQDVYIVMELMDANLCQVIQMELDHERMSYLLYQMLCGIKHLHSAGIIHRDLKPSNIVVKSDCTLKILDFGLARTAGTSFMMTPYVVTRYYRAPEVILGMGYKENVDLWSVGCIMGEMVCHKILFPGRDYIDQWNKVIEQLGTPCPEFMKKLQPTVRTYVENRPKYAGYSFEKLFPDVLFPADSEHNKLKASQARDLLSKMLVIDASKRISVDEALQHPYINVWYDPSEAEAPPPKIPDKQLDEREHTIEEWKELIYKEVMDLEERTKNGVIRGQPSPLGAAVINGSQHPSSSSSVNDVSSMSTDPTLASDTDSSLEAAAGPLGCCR
T4 sequence (O75716 whole entry): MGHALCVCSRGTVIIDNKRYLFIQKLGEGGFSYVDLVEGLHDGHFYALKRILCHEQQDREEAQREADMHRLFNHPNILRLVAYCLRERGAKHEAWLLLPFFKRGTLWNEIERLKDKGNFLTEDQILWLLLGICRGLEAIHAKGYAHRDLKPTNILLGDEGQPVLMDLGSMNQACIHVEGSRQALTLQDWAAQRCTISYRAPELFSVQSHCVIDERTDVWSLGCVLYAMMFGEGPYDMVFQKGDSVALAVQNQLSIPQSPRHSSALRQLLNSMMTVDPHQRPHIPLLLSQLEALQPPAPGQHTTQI

Molecule: CN(C)C(=O)Cc1ccc(N2CCCN(c3ccnc4sc(C(N)=O)c(N)c34)CC2)cc1 [15w]
- IC50 (CDK8; read-out: IC50, CXCL1 mRNA expression, 19KO): 5.2 nM
- IC50 (CDK8; read-out: IC50, CXCL8 mRNA expression, 19KO): 4.2 nM
- IC50 (CDK8; read-out: IC50, MYC mRNA expression, 19KO): 2.5 nM
- IC50 (CDK19 [1]; read-out: IC50, CXCL1 mRNA expression, 8KO): 5.4 nM
- IC50 (CDK19 [1]; read-out: IC50, CXCL8 mRNA expression, 8KO): 5.4 nM
- IC50 (CDK19 [1]; read-out: IC50, MYC mRNA expression, 8KO): 6.2 nM
- IC50 (CDK8/19 [2]; HEK293 WT; 1 h pre-treatment, then 10 ng/mL TNFα 2 h; QPCR; read-out: IC50, CXCL1 mRNA expression, WT): 6.1 nM
- IC50 (CDK8/19 [2]; HEK293 WT; 1 h pre-treatment, then 10 ng/mL TNFα 2 h; QPCR; read-out: IC50, CXCL8 mRNA expression, WT): 5.5 nM
- IC50 (CDK8/19 [2]; HEK293 WT; 1 h pre-treatment, then 10 ng/mL TNFα 2 h; QPCR; read-out: IC50, MYC mRNA expression, WT): 4 nM

Molecule: Cn1ncc2cc(-c3cnc(N)c(Cl)c3N3CCC4(CCNC4=O)CC3)ccc21 [Cmpd3]
- Kd (PIKFYVE [3]): 100 nM
- Weight loss in mice [4]: detectable weight loss
- Kd (JNK1 (MAPK8)): 390 nM
- Kd (CDK19 [5]): 59 nM
- Toxicity in zebrafish assays at higher concentrations [6]: moderate but significant toxicity
- Total plasma concentration after 1 h [7]: 14.1 µM
- Total plasma concentration after 2 h [7]: 6.9 µM
- Total plasma concentration after 6 h [7]: 0.8 µM
- Toxicity in dogs (dogs): multiple and striking toxicities, including lethality
- Kd (STK16): 420 nM
- IC50 (CDK19 [1]; [11]): 3.1 nM
- IC50 (CDK19 [1]; [12]): 6.1 nM
- IC50 (CDK19 [1]; IC50, MYC mRNA expression, 8KO): 0.9 nM
- Toxicity in rats (rats): multiple and striking toxicities, including lethality
- IC50 (CDK8/19 [2]; [13]): 3.2 nM
- IC50 (CDK8/19 [2]; [14]): 3.3 nM
- IC50 (CDK8/19 [2]; [15]): 4.1 nM
- Formation of large vesicular structures inside cells (PIKFYVE [8]): caused the formation of large vesicular structures

Molecule: CC(=O)O[C@H]1C(=O)[C@@]2(C)[C@H]([C@H](OC(=O)c3ccccc3)[C@]3(O)C[C@H](OC(=O)[C@H](O)[C@@H](NC(=O)c4ccccc4)c4ccccc4)C(C)=C1C3(C)C)[C@]1(OC(C)=O)CO[C@@H]1C[C@@H]2O [Taxol]
- CDK8/19-independent STAT1 S727 phosphorylation in dKO 293 cells, effect of cytotoxic drugs [9]: increased

Molecule: CN(C)C1CC23CCC4(O2)C(=CCC2(C)C(c5ccc6ccncc6c5)=CCC24)C=C3C(O)C1O (stereo not drawn) [dCA, 16-didehydro-cortistatin A]
- IC50 (CDK8; IC50, CXCL1 mRNA expression, 19KO): 1.4 nM
- IC50 (CDK8; IC50, CXCL8 mRNA expression, 19KO): 1 nM
- IC50 (CDK8; IC50, MYC mRNA expression, 19KO): 0.5 nM
- Toxicity in zebrafish assays at higher concentrations [6]: moderate but significant toxicity
- Stability of CDK8/19 inhibition after wash-off (MYC, JUN, ADAMTS1 mRNA) (CDK8/19 [10]): by far the most stable
- IC50 (CDK19 [1]; [11]): 1.1 nM
- IC50 (CDK19 [1]; [12]): 0.8 nM
- IC50 (CDK19 [1]; IC50, MYC mRNA expression, 8KO): 0.6 nM
- IC50 (CDK8/19 [2]; [13]): 1.3 nM
- IC50 (CDK8/19 [2]; [14]): 1.4 nM
- IC50 (CDK8/19 [2]; [15]): 1.5 nM

Molecule: COc1cc([C@@H]2c3cc4c(cc3[C@@H](O[C@@H]3O[C@@H]5CO[C@@H](C)O[C@H]5[C@H](O)[C@H]3O)[C@H]3COC(=O)[C@H]23)OCO4)cc(OC)c1O [etoposide]
- CDK8/19-independent STAT1 S727 phosphorylation in dKO 293 cells, effect of cytotoxic drugs [9]: increased

Molecule: EGF: Recombinant human epidermal growth factor (NSDSECPLSHDGYCLHDGVCMYIEALDKYACNCVVGYIGERCQYRDLKWWELR; UniProt P01133 971-1023, looked up)
- Basal STAT1 S727 phosphorylation in dKO cells, effect of cytokines [9]: increased

Molecule: TNFα
- Basal STAT1 S727 phosphorylation in dKO cells, effect of cytokines [9]: increased
